Test results reported in patent publication US20240325340A1, “ISOFORM SPECIFIC AGONISTS TARGETING AKT KINASE” (Thomas Jefferson University, priority 2021, published 2024).
“Also recorded” adds a separate entry of the source.

Key:
[1] = tested on: A549 AT2 cell; test: A549 AT2 cell morphology after 24 hr of drug treatment; assay type: cell-based, human; conditions: A549 AT2 cells
Experimental: (§1) FIGS. 2A-2B: illustrate the finding that T625's position 6 analogues differentially activate Akt and induce cellular toxicity. FIG. 2A: To distinguish heterologous-expressed Akt from endogenous Akt, a 41 amino acid large tag containing the HA-epitope was fused with wild type Akt2 (Akt2-LT WT). H9C2 myoblasts over-expressing Akt2-LT WT were treated with insulin or indicated compounds in serum-free media for 2 hr. Phosphorylation of T309 and total Akt2 are shown. FIG. 2B: Cell images show A549 AT2 cell morphology after 24 hr of drug treatment.

[2] = tested on: Akt; test: Splinted murine excisional skin wound model, topical treatment; assay type: in vivo, mouse; conditions: 20 μL of 40 μM applied within the wound silicone circle, 20 min
Experimental: FIGS. 14A-14B illustrate the use of an Akt activator as topical treatment for healing mouse skin wound. […] 20 μL of indicated compounds were applied within the skin wound silicone circle for 20 min. Wound tissues were harvested and blotted with anti-Akt pS473 and GAPDH using the Proteinsimple WES system. Growth factor (GF) mixture (insulin, PDGF and IGF1 growth factor) or 40 μM T620 in corn oil or in PBS as vehicles. […] Images of WT mouse skin wound after vehicle (0.7% DMSO in PBS) or 40 μM T620 treatment at Day 3. Wound images and hematoxylin sections showing wound edge and wound bed are shown. Scale bar=400 μm.
(§2) A FlexiVent system (SCIREQ) was used to deliver Akt activator, T625, directly to mouse lung. This procedure closely mimics the clinical application of inhaled insulin. […] Akt activators were also administered in the setting of mouse cardiac ischemia-reperfusion injury model (FIGS. 13A-13C). T625 was directly injected into the left ventricular free wall at the time of ischemic ligation of exteriorized heart. Also, to mimic clinical use, (IP) Akt activators were intraperitoneally injected within 10 min after ischemia initiation. It was shown that both directly applied and intraperitoneally injected Akt activators activated Akt in the heart. Finally, a splinted murine excisional wound model that mimic human wound healing was used. […]

[3] = molecular target: T1, Akt2-LT WT (Homo sapiens, UniProt P31751); test: Phosphorylation of heterologously expressed Akt2-LT WT in H9C2 myoblasts; assay type: cell-based; conditions: serum-free media, 2 hr
T1 construct: expressed in transfected cells; host or cells: H9C2 myoblasts
T1 sequence (P31751 whole entry): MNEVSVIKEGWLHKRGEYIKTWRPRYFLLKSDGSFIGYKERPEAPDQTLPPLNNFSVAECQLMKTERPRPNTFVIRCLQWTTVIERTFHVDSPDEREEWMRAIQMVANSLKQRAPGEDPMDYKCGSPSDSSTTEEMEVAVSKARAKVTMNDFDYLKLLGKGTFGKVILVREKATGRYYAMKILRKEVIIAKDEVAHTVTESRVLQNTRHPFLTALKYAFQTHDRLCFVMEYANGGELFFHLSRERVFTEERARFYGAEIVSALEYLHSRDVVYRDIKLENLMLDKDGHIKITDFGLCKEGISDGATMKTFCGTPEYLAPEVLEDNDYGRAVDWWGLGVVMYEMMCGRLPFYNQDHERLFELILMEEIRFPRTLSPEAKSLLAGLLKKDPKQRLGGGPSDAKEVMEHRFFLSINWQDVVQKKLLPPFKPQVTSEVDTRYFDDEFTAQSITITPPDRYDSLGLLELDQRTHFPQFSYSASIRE
Experimental: as §1

[4] = tested on: cells; test: Cellular toxicity (cells not specified); assay type: cell-based
[5] = tested on: Hacat cells; test: Human keratinocyte migration (cell-free gap) assay; assay type: cell-based; conditions: 40 μM, 22 hr, serum-starved
Experimental: FIGS. 11A-11B illustrates the finding that Akt activators in human keratinocyte cell line induce VEGF secretion and enhanced cell migration. FIG. 11A: Human keratinocyte line, HaCat cells, was incubated with 20 μM of each Akt activators for 24 hours. Insulin (3.5 μg/ml) and IGF1 (100 ng/mL) treatment were used as positive control. […] HaCaT cells were plated into silicone insert molds with a […] defined cell-free gap (Ibidi) and serum-starved overnight. Then, the mold barrier was removed and cells were treated with 40 μM T620. After 22 hr, the gap spaces were imaged at 100×. Two images of control and four images of T620 treated gap spaces are shown.

[6] = tested on: Hacat cells; test: Cellular toxicity / cell morphology in Hacat cells after 24 hrs; assay type: cell-based, human; conditions: 40 μM
[7] = tested on: A549 cells; test: Cytotoxicity by release of lactate dehydrogenase (LDH) in A549 cells; assay type: cell-based, human; conditions: 40 μM, 24 hours, serum-free media
Experimental: Cytotoxicity was determined by the release of lactate dehydrogenase (LDH) into cell culture media. A549 cells were incubated with 40 μM of each compound for 24 hours in serum-free media (n=3 for each compound). FIG. 8B: A visual assessment of cell morphology after 24 hrs treatment with 40 μM of each compound in serum-free media. 100× images are shown.

[8] = tested on: Akt; test: Mouse cardiac ischemia-reperfusion injury model, Akt activation in heart; assay type: in vivo; conditions: directly injected or intraperitoneally injected after ischemic-ligation
Experimental: FIG. 13A: A schematic of ischemic-reperfusion procedure indicating drug injection time and heart harvest time. FIG. 13B: Illustrates immunoblots of pS473, Akt phospho-substrate, pPRAS40 and GAPDH in the WES auto-western system. After ischemic-ligation, T625 (0.8 μg in 20 μl PBS) were directly injected at three spots of exposed ventricular wall. Injected insulin was used as a control. FIG. 13C: Illustrates immunoblots of pT308, total Akt (tAkt) and GAPDH and quantified pT308/tAkt ratio. After ischemic-ligation, T620 and T625 were directly injected or intraperitoneally injected.
as §2

## N#CC1=C(N)Oc2ccc([N+](=O)[O-])cc2C1C(C#N)C#N (centres unmarked) [T620, 2-(2-amino-3-cyano-6-nitro-4H-chromen-4-yl)propanedinitrile]
[1]
  cellular toxicity (cell morphology): greatly reduced toxicity
[2]
  Akt activation (pS473) within mouse skin wounds: activated Akt within mouse skin wounds
[3]
  Akt activation in cells (phosphorylation of T309 of Akt2-LT WT): preserved Akt activation; also recorded: activate Akt
[4]
  cellular toxicity: reduced toxicity
[5]
  keratinocyte migration: enhance human keratinocyte migration
[6]
  cellular toxicity: failed to show significant cellular toxicity
[7]
  cellular toxicity (LDH release): low toxicity; also recorded: failed to show significant cellular toxicity; also recorded: reduced cellular toxicity
[8]
  Akt activation in mouse heart during ischemia-reperfusion: enhanced Akt activation in mouse heart
